16 compounds from US9738655B2, “Tetrahydroisoquinolines containing substituted azoles as factor XIa inhibitors” (BRISTOL-MYERS SQUIBB COMPANY, priority 2013, dated 2017) can be followed below.

Structures are written as SMILES. Counter-ions that a name gives are not always drawn. Like-named read-outs stand apart in the source and are kept apart here. Bounds are passed on as bounds.

In assay [1] the target is purified human plasma kallikrein (Homo sapiens (Human), UniProt P03952). Briefly: Plasma kallikrein enzyme inhibition assay (chromogenic substrate S-2302). It counts as biochemical.
The target of assay [2] is purified human Factor XIa (Homo sapiens (Human), UniProt P03951). Briefly: Factor XIa enzyme inhibition assay (chromogenic substrate S-2366).
[3] abbreviates: measured at 25° C. (no asterisk).
[4] abbreviates: read-out: Factor XIa Ki, measured at 25° C.

purified human Factor XIa, sequence (P03951 388-625): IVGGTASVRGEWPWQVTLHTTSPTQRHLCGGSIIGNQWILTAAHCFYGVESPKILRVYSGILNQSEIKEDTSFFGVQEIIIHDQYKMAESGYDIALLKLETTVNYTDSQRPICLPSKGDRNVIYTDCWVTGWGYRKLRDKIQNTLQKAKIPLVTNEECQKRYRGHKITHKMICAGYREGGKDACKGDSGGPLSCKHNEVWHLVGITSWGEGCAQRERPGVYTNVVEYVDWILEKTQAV
purified human Factor XIa, sequence (P03951 19-387 partner): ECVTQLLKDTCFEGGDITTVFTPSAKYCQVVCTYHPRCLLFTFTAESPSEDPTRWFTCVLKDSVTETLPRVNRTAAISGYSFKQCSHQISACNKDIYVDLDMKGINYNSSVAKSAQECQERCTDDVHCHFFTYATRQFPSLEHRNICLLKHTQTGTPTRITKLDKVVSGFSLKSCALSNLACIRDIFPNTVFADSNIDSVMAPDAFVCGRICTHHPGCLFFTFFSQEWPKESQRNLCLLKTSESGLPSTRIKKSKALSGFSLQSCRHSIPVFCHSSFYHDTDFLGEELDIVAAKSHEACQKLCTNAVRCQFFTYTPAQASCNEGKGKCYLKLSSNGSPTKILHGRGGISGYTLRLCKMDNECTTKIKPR
purified human plasma kallikrein, sequence (P03952 391-638): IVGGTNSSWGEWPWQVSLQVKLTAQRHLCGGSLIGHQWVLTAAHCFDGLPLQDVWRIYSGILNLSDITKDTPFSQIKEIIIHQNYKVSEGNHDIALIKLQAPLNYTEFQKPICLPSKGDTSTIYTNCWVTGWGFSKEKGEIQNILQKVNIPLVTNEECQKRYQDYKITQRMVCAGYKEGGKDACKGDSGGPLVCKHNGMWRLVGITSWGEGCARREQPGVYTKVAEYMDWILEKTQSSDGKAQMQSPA
purified human plasma kallikrein, sequence (P03952 20-390 partner): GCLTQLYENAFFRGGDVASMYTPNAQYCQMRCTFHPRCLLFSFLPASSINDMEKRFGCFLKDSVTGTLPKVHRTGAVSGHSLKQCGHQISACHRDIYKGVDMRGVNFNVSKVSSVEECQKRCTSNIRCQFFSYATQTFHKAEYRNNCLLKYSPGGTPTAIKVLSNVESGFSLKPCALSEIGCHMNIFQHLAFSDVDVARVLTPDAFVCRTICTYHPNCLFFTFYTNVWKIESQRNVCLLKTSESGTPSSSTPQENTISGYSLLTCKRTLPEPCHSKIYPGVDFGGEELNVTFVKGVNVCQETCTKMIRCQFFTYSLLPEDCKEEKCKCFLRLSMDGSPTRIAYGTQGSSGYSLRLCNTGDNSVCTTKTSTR

On to `Cn1cc2ccc(-c3cccc4c3CCN(C(=O)c3cn(-c5cccc(Cl)c5F)nn3)C4C(=O)Nc3ccc(C(=O)O)cc3)cc2n1` (centres unmarked) [Example 162, 4-(2-(1-(3-chloro-2-fluorophenyl)-1H-1,2,3-triazole-4-carbonyl)-5-(2-methyl-2H-indazol-6-yl)-1,2,3,4-tetrahydroisoquinoline-1-carboxamido)benzoic acid], for which the Ki – broadly, the dissociation constant of the complex between target and ligand, obtained from inhibition or displacement – in assay [1] (setting [3]) was 49.9 nM; in assay [2] (setting [4]), < 5 nM.
With `COC1CCN(c2cccc3c2CCN(C(=O)c2cn(-c4cccc(Cl)c4F)nn2)C3C(=O)Nc2ccc3c(c2)CCC(=O)N3C)CC1` (centres unmarked) [Example 189, 2-(1-(3-Chloro-2-fluorophenyl)-1H-1,2,3-triazole-4-carbonyl)-5-(4-methoxypiperidin-1-yl)-N-(1-methyl-2-oxo-1,2,3,4-tetrahydroquinolin-6-yl)-1,2,3,4-tetrahydroisoquinoline-1-carboxamide, TFA salt], the Ki in assay [1] (setting [3]) was found to be 540 nM; in assay [2] (setting [4]) it was 411 nM.
Turning to `COC1CCN(c2cccc3c2CCN(C(=O)c2cn(-c4cccc(Cl)c4F)nn2)C3C(=O)Nc2ccc3c(c2)CC(=O)N3)CC1` (centres unmarked) [Example 190, 2-(1-(3-Chloro-2-fluorophenyl)-1H-1,2,3-triazole-4-carbonyl)-5-(4-methoxypiperidin-1-yl)-N-(2-oxoindolin-5-yl)-1,2,3,4-tetrahydroisoquinoline-1-carboxamide, TFA salt], the Ki in assay [1] (setting [3]) came to 163 nM; in assay [2] (setting [4]), 98.1 nM.
In the case of `CC(=O)Nc1cccc2c1CCN(C(=O)c1cn(-c3cccc(Cl)c3F)nn1)C2C(=O)Nc1ccc(C(=O)O)cc1` (centres unmarked) [Example 191, 4-(5-Acetamido-2-(1-(3-chloro-2-fluorophenyl)-1H-1,2,3-triazole-4-carbonyl)-1,2,3,4-tetrahydroisoquinoline-1-carboxamido)benzoic acid], the Ki turned out to be 12.3 nM in assay [1] (setting [3]) and 13.4 nM in assay [2] (setting [4]).
In the case of `CN1CCC(NC(=O)c2cccc3c2CCN(C(=O)c2cn(-c4cccc(Cl)c4F)nn2)C3C(=O)Nc2ccc(C(=O)O)cc2)CC1` (centres unmarked) [Example 192, 4-(2-(1-(3-Chloro-2-fluorophenyl)-1H-1,2,3-triazole-4-carbonyl)-5-((1-methylpiperidin-4-yl)carbamoyl)-1,2,3,4-tetrahydroisoquinoline-1-carboxamido)benzoic acid, TFA salt], the Ki in assay [1] (setting [3]) was found to be 55.6 nM; in assay [2] (setting [4]), 9.97 nM.
In the case of `O=C(Nc1cccc2c1CCN(C(=O)c1cn(-c3cccc(Cl)c3F)nn1)C2C(=O)Nc1ccc(C(=O)O)cc1)NC1CCCC1` (centres unmarked) [Example 193, 4-(2-(1-(3-Chloro-2-fluorophenyl)-1H-1,2,3-triazole-4-carbonyl)-5-(3-cyclopentylureido)-1,2,3,4-tetrahydroisoquinoline-1-carboxamido)benzoic acid], the Ki came out at 2.34 nM in assay [1] (setting [3]) and 19.9 nM in assay [2] (setting [4]).
For `O=C(O)c1ccc(NC(=O)C2c3cccc(Cl)c3CCN2C(=O)c2cn(-c3cccc(Cl)c3F)nn2)cc1` (centres unmarked) [Example 194, 4-(5-Chloro-2-(1-(3-chloro-2-fluorophenyl)-1H-1,2,3-triazole-4-carbonyl)-1,2,3,4-tetrahydroisoquinoline-1-carboxamido)benzoic acid], the inhibitory constant (Ki) amounted to 41.5 nM in assay [1] (setting [3]) and 57.1 nM in assay [2].
As to `O=C(O)c1ccc(NC(=O)C2c3cccc(F)c3CCN2C(=O)c2cn(-c3cccc(Cl)c3F)nn2)cc1` (centres unmarked) [Example 195, 4-(2-(1-(3-Chloro-2-fluorophenyl)-1H-1,2,3-triazole-4-carbonyl)-5-fluoro-1,2,3,4-tetrahydroisoquinoline-1-carboxamido)benzoic acid], the Ki in assay [1] (setting [3]) came to 30.9 nM; in assay [2] (setting [4]) it was 40.1 nM.
Consider `O=C(O)c1ccc(NC(=O)C2c3cccc(N4CC[C@H](O)C4=O)c3CCN2C(=O)c2cn(-c3cccc(Cl)c3F)nn2)cc1` (stereo partly drawn) [Example 196, 4-(2-(1-(3-Chloro-2-fluorophenyl)-1H-1,2,3-triazole-4-carbonyl)-5-((S)-3-hydroxy-2-oxopyrrolidin-1-yl)-1,2,3,4-tetrahydroisoquinoline-1-carboxamido)benzoic acid, TFA salt], for which the Ki in assay [1] (setting [3]) came out at 11.9 nM; in assay [2] (setting [4]), 7.1 nM.
For the compound `O=C(O)c1ccc(NC(=O)C2c3cccc(N4CCN(CC(F)(F)F)CC4=O)c3CCN2C(=O)c2cn(-c3cccc(Cl)c3F)nn2)cc1` (centres unmarked) [Example 197, 4-(2-(1-(3-Chloro-2-fluorophenyl)-1H-1,2,3-triazole-4-carbonyl)-5-(2-oxo-4-(2,2,2-trifluoroethyl)piperazin-1-yl)-1,2,3,4-tetrahydroisoquinoline-1-carboxamido)benzoic acid, TFA salt], the Ki in assay [1] (setting [3]) was 10 nM; in assay [2] (setting [4]) it was < 5 nM.
Consider `CN1CCN(c2cccc3c2CCN(C(=O)c2cc(-c4cccc(Cl)c4)no2)C3C(=O)Nc2ccc(C(=O)O)cc2)CC1` (centres unmarked) [Example 198, 4-(2-(3-(3-chlorophenyl)isoxazole-5-carbonyl)-5-(4-methylpiperazin-1-yl)-1,2,3,4-tetrahydroisoquinoline-1-carboxamido)benzoic acid, 2 TFA salt], for which the Ki in assay [1] (setting [3]) came to 122 nM; in assay [2] (setting [4]), 49.5 nM.
On to `CN1CCN(c2cccc3c2CCN(C(=O)c2cn(-c4cccc(Cl)c4)nc2C(F)(F)F)C3C(=O)Nc2ccc(C(=O)O)cc2)CC1` (centres unmarked) [Example 199, 4-(2-(1-(3-chlorophenyl)-3-(trifluoromethyl)-1H-pyrazole-4-carbonyl)-5-(4-methylpiperazin-1-yl)-1,2,3,4-tetrahydroisoquinoline-1-carboxamido)benzoic acid, 2 TFA salt], for which the Ki is > 6000 nM in assay [1] (measured at 37° C. (*)) and 2300 nM in assay [2] (setting [4]).
Consider `CN1CCN(c2cccc3c2CCN(C(=O)c2cnn(-c4cccc(Cl)c4)c2)C3C(=O)Nc2ccc(C(=O)O)cc2)CC1` (centres unmarked) [Example 200, 4-(2-(1-(3-chlorophenyl)-1H-pyrazole-4-carbonyl)-5-(4-methylpiperazin-1-yl)-1,2,3,4-tetrahydroisoquinoline-1-carboxamido)benzoic acid, 2 TFA salt], for which the Ki turned out to be 10.7 nM in assay [1] (setting [3]) and 41.7 nM in assay [2] (setting [4]).
`CN1CCN(c2cccc3c2CCN(C(=O)c2cn(-c4cccc(Cl)c4)nn2)C3C(=O)Nc2ccc(C(=O)O)cc2)CC1` (centres unmarked) [Example 201, 4-(2-(1-(3-chlorophenyl)-1H-1,2,3-triazole-4-carbonyl)-5-(4-methylpiperazin-1-yl)-1,2,3,4-tetrahydroisoquinoline-1-carboxamido)benzoic acid, 2 TFA salt]: the Ki stood at 4.21 nM in assay [1] (setting [3]) and 9.88 nM in assay [2] (setting [4]).
Take `CN1CCN(c2cccc3c2CCN(C(=O)C2CC(c4c(F)ccc(Cl)c4F)=NO2)C3C(=O)Nc2ccc(C(=O)O)cc2)CC1` (centres unmarked) [Example 205, 4-(2-(3-(3-chloro-2,6-difluorophenyl)-4,5-dihydroisoxazole-5-carbonyl)-5-(4-methylpiperazin-1-yl)-1,2,3,4-tetrahydroisoquinoline-1-carboxamido)benzoic acid, 2 TFA salt]: the Ki in assay [1] (setting [3]) is 0.64 nM; in assay [2] (setting [4]), < 5 nM.
The matching figures for `CN1CCN(c2cccc3c2CCN(C(=O)c2cn(-c4cccc(Cl)c4F)nn2)C3C(=O)Nc2ccc(C(=O)O)cc2)CC1` (centres unmarked) [Example 211, 4-(2-(1-(3-chloro-2-fluorophenyl)-1H-1,2,3-triazole-4-carbonyl)-5-(4-methylpiperazin-1-yl)-1,2,3,4-tetrahydroisoquinoline-1-carboxamido)benzoic acid, 2 TFA salt]: 0.52 nM and < 5 nM.
